According to US10947196B2, “Beta adrenergic agonist and methods of using the same” (CURASEN THERAPEUTICS, INC., priority 2019, dated 2021):

Molecular target: β2 adrenergic receptor (Homo sapiens (Human), UniProt P07550)
Assay: cAMP Gs dynamic HTRF assay, β2 expressing CHO cells
Type: cell-based
Conditions: B2-AR; CHO-K1 (HitHunter); read-out: Average pEC50 [Receptor subtype: B2-AR; Cell type: CHO-K1 (HitHunter)] (converted)
Method: (§1) cAMP homogeneous time-resolved fluorescence (HTRF). Compound efficacy was determined using the cAMP Gs dynamic HTRF assay (Cisbio, catalog #62AM4PEC) largely following the manufacturer's instructions, also detailed below.
(§2) Compound preparation. […] Standard serial dilution curves were 10-point, 5-fold dilutions starting from a highest concentration of 10 μM. […] Assay plates were centrifuged at 500×g for 10 seconds. Compounds and IBMX were prepared at 2× final dose to compensate for addition of cells.
(§3) Cell preparation. 1× stimulation buffer, washing PBS (Dulbecco's phosphate-buffered saline, −Mg −Ca; Caisson Labs, catalog #PBL01), assay PBS (Dulbecco's phosphate-buffered saline, +Mg, +Ca; Caisson Labs, catalog #PBL02) and Versene (0.02% EDTA disodium salt solution in PBS without calcium or magnesium; Caisson Labs, catalog #EDL01) were pre-warmed to 37° C. Cells expressing beta-adrenergic receptor were washed in washing PBS to remove growth medium and then released from the surface by incubating with Versene for 5-10 minutes at 37° C. Cells were harvested using assay PBS, counted manually by hemocytometer or by an automated cell counter, pelleted by centrifugation (200×g, 5 minutes) and resuspended in 37° C. 1× stimulation buffer to a final density of 1.5×10^6 cells/mL. 5 μL of the suspended cell solution (7500 cell total) were added to all wells of the 384 well assay plate, the assay plate was covered with an Axygen® plate seal (Corning PCR-SP) and incubated in a humidified 37° C. environment supplemented with 5% CO2 for 30 minutes.
(§4) HTRF reagent addition, reading and data analysis. After 30 minutes of cell stimulation with test compound, the assay plates were centrifuged at 500×g for 10 seconds, and incubation was stopped with the addition of 5 μL cAMP-D2 acceptor, diluted 1:21 in detection and lysis buffer 2 (Cisbio 62CL2FDF) was added to all cells. Subsequently, 5 μL Anti-cAMP-Eu Donor, diluted 1:21 in detection and lysis buffer 2, was added to cells. Plates were sealed and reactions gently ‘vortexed’ at 900 rpm on a Heidolph Titramax 1000 for at least 30 minutes at room temperature. Plates were centrifuged again at 500×g for 10 seconds, and HTRF was measured using a Tecan Spark plate reader at 50 flashes per well. […] Potency estimates (EC50) were derived from the four-parameter nonlinear regression of the concentration-effect curve and an estimate of relative efficacy was determined by comparing the magnitude of the test compound HTRF signal window (min−max dose) with the signal window of the full agonist control, isoproterenol.

Chain of β2 adrenergic receptor (P07550 whole entry, species assumed): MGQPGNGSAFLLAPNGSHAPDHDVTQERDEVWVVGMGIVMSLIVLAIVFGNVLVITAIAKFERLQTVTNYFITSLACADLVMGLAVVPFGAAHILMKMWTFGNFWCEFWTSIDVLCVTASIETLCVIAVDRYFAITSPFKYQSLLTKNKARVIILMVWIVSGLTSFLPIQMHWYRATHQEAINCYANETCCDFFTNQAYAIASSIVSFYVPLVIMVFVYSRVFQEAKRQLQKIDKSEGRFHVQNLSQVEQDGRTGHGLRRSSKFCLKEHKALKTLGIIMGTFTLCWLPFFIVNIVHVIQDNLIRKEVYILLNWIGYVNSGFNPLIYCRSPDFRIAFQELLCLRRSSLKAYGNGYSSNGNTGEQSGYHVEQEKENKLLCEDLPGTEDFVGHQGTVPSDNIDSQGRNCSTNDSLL

`CC(C)(C)NC[C@@H](O)c1ccnc(C(F)(F)F)c1` [Compound 03-211] and `CC(C)(C)NC[C@@H](O)c1cccc(C(F)(F)F)n1` [Compound 03-43] fall in the same range of EC50: 0.1 to 1 µM for the first, 0.1 to 1 µM for the second.

First: Cn1ccc(-c2cccc([C@H](O)CNC(C)(C)C)n2)n1 [Compound 03-226]
Second: CC(C)(C)NC[C@H](O)c1cccc(-c2ccccc2F)n1 [Compound 03-155]
The EC50 of the first is higher: 0.1 to 1 µM for the first, less than 0.01 µM for the second.

`CC(C)(C)NC[C@H](O)c1cc(C(F)(F)F)cnc1C1=CCCC1` [Compound 03-92] and `Cc1ccc([C@@H](O)CNC(C)(C)C)c(C2=CCCC2)n1` [Compound 03-90] cannot be ordered by EC50: greater than 1 µM for the first, greater than 1 µM for the second.

Compared with `CC(C)(C)NC[C@H](O)c1cccc(OC(C)(C)C)n1` [Compound 03-196], `CC(C)(C)NC[C@@H](O)c1cccc(C(C)(F)F)n1` [Compound 03-170] is higher in EC50: less than 0.01 µM for the first, 0.1 to 1 µM for the second.

First: CC(C)(C)NC[C@@H](O)c1cccc(C2CCOCC2)n1 [Compound 03-122]
Second: Cc1ccc([C@@H](O)CNC(C)(C)C)c(C2CCCC2)n1 [Compound 03-65]
The EC50 of the first is higher: 0.1 to 1 µM for the first, 0.01 to 0.1 µM for the second.

First: CN(C)C(=O)c1cccc([C@@H](O)CNC(C)(C)C)n1 [Compound 03-7]
Second: CC(C)(C)NC[C@@H](O)c1cccc(-c2ccccc2F)n1 [Compound 03-156]
The EC50 of the first is higher: 0.1 to 1 µM for the first, 0.01 to 0.1 µM for the second.

First: CC1(NC[C@@H](O)c2cccc(C(F)(F)F)n2)CC1 [Compound 03-13]
Second: CC1(NC[C@@H](O)c2cccc(C(F)(F)F)n2)CCC1 [Compound 03-12]
The EC50 of the first is higher: greater than 1 µM for the first, 0.1 to 1 µM for the second.

`C#Cc1ncccc1[C@@H](O)CNC(C)(C)C` [Compound 03-75] and `CC(C)(C)NC[C@H](O)c1ccnc(C#N)c1` [Compound 03-110] cannot be ordered by EC50: greater than 1 µM for the first, greater than 1 µM for the second.

Compared with `CC(C)(C)NC[C@H](O)c1cccc(-c2cccc(Cl)c2)n1` [Compound 03-129], `COc1ccc(C[C@@H](C)NC[C@@H](O)c2cccc(C(F)(F)F)n2)cc1` [Compound 03-16] is higher in EC50: less than 0.01 µM for the first, 0.01 to 0.1 µM for the second.

Same assay, conditions: B2-AR; CHO-K cells; read-out: Average EC50 [Receptor subtype: B2-AR; Cell type: CHO-K]

Compared with `CC(C)(C)NC[C@@H](O)c1nc(C(F)(F)F)cc2ccccc12` [Compound 03-172], `CC(C)(C)NC[C@@H](O)c1ccc2cccc(C(F)(F)F)c2n1` [Compound 03-164] is lower in EC50: greater than 1 µM for the first, less than 0.01 µM for the second.

`CC(C)(C)NC[C@H](O)c1ccc2ccccc2n1` [Compound 03-165] and `CC(C)(C)NC[C@H](O)c1cccc(-c2ccccc2F)n1` [Compound 03-155] cannot be ordered by EC50: less than 0.01 µM for the first, less than 0.01 µM for the second.

First: CC(C)(C)NC[C@@H](O)c1cccc(C(F)(F)F)n1 [Compound 03-43]
Second: CC(C)(C)NC[C@@H](O)c1cccc(C(C)(F)F)n1 [Compound 03-170]
The EC50 of the first is higher: greater than 1 µM for the first, 0.1 to 1 µM for the second. The second is the more potent here.

`CC(C)(C)NC[C@@H](O)c1cccc(C2CCOCC2)n1` [Compound 03-122] and `CN(C)C(=O)c1cccc([C@@H](O)CNC(C)(C)C)n1` [Compound 03-7] fall in the same range of EC50: 0.1 to 1 µM for the first, 0.1 to 1 µM for the second.

First: CC(C)(C)NC[C@H](O)c1ccc2cccc(C(F)(F)F)c2n1 [Compound 03-163]
Second: CC(C)(C)NC[C@@H](O)c1cccc(-c2ccccc2F)n1 [Compound 03-156]
The EC50 of the first is lower: less than 0.01 µM for the first, 0.01 to 0.1 µM for the second.

Compared with `CC1(NC[C@@H](O)c2cccc(C(F)(F)F)n2)CC1` [Compound 03-13], `CC1(NC[C@@H](O)c2cccc(C(F)(F)F)n2)CCC1` [Compound 03-12] is lower in EC50: greater than 1 µM for the first, 0.1 to 1 µM for the second.

First: CC(C)(C)NC[C@H](O)c1cccc(-c2cccc(Cl)c2)n1 [Compound 03-129]
Second: COc1ccc(C[C@@H](C)NC[C@@H](O)c2cccc(C(F)(F)F)n2)cc1 [Compound 03-16]
The EC50 of the first is lower: less than 0.01 µM for the first, 0.01 to 0.1 µM for the second. The first is the more potent here.

Same assay, conditions: cAMP HTRF; read-out: β2 EC50

Compared with `CC(C)(C)NC[C@H](O)c1cc(C(F)(F)F)ccn1` [Compound 03-2], `CC(C)(C)NC[C@H](O)c1ncccc1C(F)(F)F` [Compound 03-1, (S)-2-(tert-butylamino)-1-(3-(trifluoromethyl)pyridin-2-yl)ethan-1-ol] is higher in EC50: 0.1 to 1 µM for the first, greater than 1 µM for the second. The first is the more potent here.

Molecular target: β1-adrenergic receptor (Homo sapiens (Human), UniProt P08588)
Sequence (P08588 whole entry, species assumed): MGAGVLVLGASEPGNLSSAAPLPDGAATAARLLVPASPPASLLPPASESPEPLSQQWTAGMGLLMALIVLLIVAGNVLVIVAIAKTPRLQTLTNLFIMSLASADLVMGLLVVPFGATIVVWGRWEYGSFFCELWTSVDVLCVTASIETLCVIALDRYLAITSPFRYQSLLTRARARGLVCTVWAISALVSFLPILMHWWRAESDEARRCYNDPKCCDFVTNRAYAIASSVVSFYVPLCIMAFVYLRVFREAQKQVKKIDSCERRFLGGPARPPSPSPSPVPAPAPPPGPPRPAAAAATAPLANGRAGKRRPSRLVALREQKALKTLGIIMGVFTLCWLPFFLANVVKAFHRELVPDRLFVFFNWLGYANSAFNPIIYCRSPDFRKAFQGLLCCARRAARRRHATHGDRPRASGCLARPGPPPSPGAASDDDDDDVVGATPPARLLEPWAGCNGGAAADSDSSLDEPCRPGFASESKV
Assay: cAMP Gs dynamic HTRF assay, β1 expressing CHO cells
Type: cell-based
Conditions: B1-AR; CHO-K1 (HitHunter)
Method: as §1, §2, §3, §4

For `CN(C)C(=O)c1cccc([C@@H](O)CNC(C)(C)C)n1` [Compound 03-7], the “Average pEC50 [Receptor subtype: B1-AR; Cell type: CHO-K1 (HitHunter)]” value (“Average pEC50” below) was “D (D < 6)”.
For `CC(C)(C)NC[C@@H](O)c1cccc(C(C)(F)F)n1` [Compound 03-170], the “Average pEC50” value was “D (D < 6)”.
`CC(C)(C)NC[C@H](O)c1cccc(-c2cccc(Cl)c2)n1` [Compound 03-129] was tested, and the “Average pEC50” value was “B (B = 8-7)”.

Same assay, conditions: B1-AR; CHO-K1 (HitHunter); read-out: Average pEC50 [Receptor subtype: B1-AR; Cell type: CHO-K1 (HitHunter)] (converted)

First: CC(C)(C)NC[C@@H](O)c1ccnc(C(F)(F)F)c1 [Compound 03-211]
Second: CC(C)(C)NC[C@@H](O)c1cccc(C(F)(F)F)n1 [Compound 03-43]
The EC50 of the first is lower: 0.1 to 1 µM for the first, greater than 1 µM for the second.

Compared with `Cn1ccc(-c2cccc([C@H](O)CNC(C)(C)C)n2)n1` [Compound 03-226], `CC(C)(C)NC[C@H](O)c1cccc(-c2ccccc2F)n1` [Compound 03-155] is lower in EC50: greater than 1 µM for the first, 0.01 to 0.1 µM for the second.

`CC(C)(C)NC[C@H](O)c1cc(C(F)(F)F)cnc1C1=CCCC1` [Compound 03-92] and `Cc1ccc([C@@H](O)CNC(C)(C)C)c(C2=CCCC2)n1` [Compound 03-90] cannot be ordered by EC50: greater than 1 µM for the first, greater than 1 µM for the second.

Compared with `CC(C)(C)NC[C@H](O)c1cccc(OC(C)(C)C)n1` [Compound 03-196], `CC(C)(C)NC[C@@H](O)c1cccc(C2CCOCC2)n1` [Compound 03-122] is higher in EC50: 0.01 to 0.1 µM for the first, greater than 1 µM for the second.

`Cc1ccc([C@@H](O)CNC(C)(C)C)c(C2CCCC2)n1` [Compound 03-65] and `C#Cc1ncccc1[C@@H](O)CNC(C)(C)C` [Compound 03-75] cannot be ordered by EC50: greater than 1 µM for the first, greater than 1 µM for the second.

`CC1(NC[C@@H](O)c2cccc(C(F)(F)F)n2)CC1` [Compound 03-13] and `CC1(NC[C@@H](O)c2cccc(C(F)(F)F)n2)CCC1` [Compound 03-12] cannot be ordered by EC50: greater than 1 µM for the first, greater than 1 µM for the second.

First: CC(C)(C)NC[C@@H](O)c1cccc(-c2ccccc2F)n1 [Compound 03-156]
Second: COc1ccc(C[C@@H](C)NC[C@@H](O)c2cccc(C(F)(F)F)n2)cc1 [Compound 03-16]
The EC50 of the first is higher: greater than 1 µM for the first, 0.1 to 1 µM for the second.

For `CC(C)(C)NC[C@H](O)c1ccnc(C#N)c1` [Compound 03-110], the EC50 was greater than 1 µM.

Same assay, conditions: B1-AR; CHO-K cells; read-out: Average EC50 [Receptor subtype: B1-AR; Cell type: CHO-K]

Compared with `CC(C)(C)NC[C@@H](O)c1nc(C(F)(F)F)cc2ccccc12` [Compound 03-172], `CC(C)(C)NC[C@@H](O)c1ccc2cccc(C(F)(F)F)c2n1` [Compound 03-164] is lower in EC50: greater than 1 µM for the first, 0.1 to 1 µM for the second. The second is the more potent here.

First: CC(C)(C)NC[C@H](O)c1ccc2ccccc2n1 [Compound 03-165]
Second: CC(C)(C)NC[C@H](O)c1cccc(-c2ccccc2F)n1 [Compound 03-155]
The EC50 of the first is lower: less than 0.01 µM for the first, 0.01 to 0.1 µM for the second.

`CC(C)(C)NC[C@@H](O)c1cccc(C(F)(F)F)n1` [Compound 03-43] and `CC(C)(C)NC[C@@H](O)c1cccc(C(C)(F)F)n1` [Compound 03-170] cannot be ordered by EC50: greater than 1 µM for the first, greater than 1 µM for the second.

`CC(C)(C)NC[C@@H](O)c1cccc(C2CCOCC2)n1` [Compound 03-122] and `CN(C)C(=O)c1cccc([C@@H](O)CNC(C)(C)C)n1` [Compound 03-7] cannot be ordered by EC50: greater than 1 µM for the first, greater than 1 µM for the second.

Compared with `CC(C)(C)NC[C@H](O)c1ccc2cccc(C(F)(F)F)c2n1` [Compound 03-163], `CC(C)(C)NC[C@@H](O)c1cccc(-c2ccccc2F)n1` [Compound 03-156] is higher in EC50: less than 0.01 µM for the first, greater than 1 µM for the second. The first is the more potent here.

`CC1(NC[C@@H](O)c2cccc(C(F)(F)F)n2)CC1` [Compound 03-13] and `CC1(NC[C@@H](O)c2cccc(C(F)(F)F)n2)CCC1` [Compound 03-12] cannot be ordered by EC50: greater than 1 µM for the first, greater than 1 µM for the second.

First: CC(C)(C)NC[C@H](O)c1cccc(-c2cccc(Cl)c2)n1 [Compound 03-129]
Second: COc1ccc(C[C@@H](C)NC[C@@H](O)c2cccc(C(F)(F)F)n2)cc1 [Compound 03-16]
The EC50 of the first is lower: 0.01 to 0.1 µM for the first, 0.1 to 1 µM for the second.

Same assay, conditions: cAMP HTRF; read-out: β1 EC50

`CC(C)(C)NC[C@H](O)c1cc(C(F)(F)F)ccn1` [Compound 03-2] and `CC(C)(C)NC[C@H](O)c1ncccc1C(F)(F)F` [Compound 03-1, (S)-2-(tert-butylamino)-1-(3-(trifluoromethyl)pyridin-2-yl)ethan-1-ol] cannot be ordered by EC50: greater than 1 µM for the first, greater than 1 µM for the second.
